Data on 30 molecules can be found in patent publication US9556201B2, “Bicyclic pyridines and analogs as sirtuin modulators” (GLAXOSMITHKLINE LLC, priority 2009, dated 2017).

By IC50 is commonly meant the concentration needed to halve the response being measured.

Assay [1] relates to TNF. The assay can be described thus: TNF IC50 (column of Table 1; method not in the text shown). It counts as cell-based.
The target of assay [2] is T1, SIRT1 (Homo sapiens, UniProt Q96EB6).
T1 sequence (Q96EB6 1-747): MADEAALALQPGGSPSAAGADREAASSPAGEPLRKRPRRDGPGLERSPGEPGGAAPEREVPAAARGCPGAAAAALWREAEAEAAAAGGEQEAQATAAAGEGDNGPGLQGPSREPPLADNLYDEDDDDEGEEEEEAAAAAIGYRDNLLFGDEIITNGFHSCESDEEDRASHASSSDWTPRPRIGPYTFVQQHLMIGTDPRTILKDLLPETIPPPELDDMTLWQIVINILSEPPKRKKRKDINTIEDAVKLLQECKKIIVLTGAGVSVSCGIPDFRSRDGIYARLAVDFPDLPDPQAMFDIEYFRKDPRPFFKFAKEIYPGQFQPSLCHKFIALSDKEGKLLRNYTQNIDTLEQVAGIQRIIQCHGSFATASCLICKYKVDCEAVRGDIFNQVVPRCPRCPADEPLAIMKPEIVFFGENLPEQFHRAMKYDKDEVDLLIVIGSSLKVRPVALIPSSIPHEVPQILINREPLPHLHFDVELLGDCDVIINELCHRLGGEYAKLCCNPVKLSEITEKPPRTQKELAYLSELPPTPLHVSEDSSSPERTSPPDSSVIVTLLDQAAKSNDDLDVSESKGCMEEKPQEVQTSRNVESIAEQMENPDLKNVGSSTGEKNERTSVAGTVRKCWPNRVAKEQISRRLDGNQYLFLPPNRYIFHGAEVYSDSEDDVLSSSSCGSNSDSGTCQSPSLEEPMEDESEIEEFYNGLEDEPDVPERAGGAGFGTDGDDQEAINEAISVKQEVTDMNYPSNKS
The assay can be described thus: Mass spectrometry based assay to identify modulators of SIRT1 activity (deacetylation of p53-based acetylated peptide substrate). The class given is biochemical. The settings on record: for Emax: 25 min, read-out: % FOLD ACT. (percent maximum fold activation); for Emax / EC1.5: SIRT1 activation. Summed up:
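His-tagged human SIRT1 (10 nM, E. coli) incubated 25 min at 25 °C with […] p53-derived acetylated 5TMR peptide and 120 μM βNAD+ in pH 8 Tris-acetate buffer, then formic acid-stopped. Mass spectrometry quantifies acetylated vs deacetylated peptide; nicotinamide and DMSO controls.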

In assay [3] the test system is TNF. The assay is described as follows: TNF IC50 (column of Table 1; method not shown). The class given is cell-based.

As for `CCN1CCCN(C(=O)Nc2nc(C)cs2)c2nc(-c3cccc(Cl)c3)ccc21` [Compound 794], the half-inhibitory concentration (IC50) in assay [1] is below 20 µM. In assay [2], the EC1.5 (concentration giving 1.5-fold activation) was below 1000 nM and the Emax is above 200%.
For `O=C(Nc1ccncc1F)N1CCc2ccc(-c3cccc(C(F)(F)F)c3)nc21` [Compound 870], the half-inhibitory concentration (IC50) in assay [1] was below 20 µM. Further, in assay [2], the EC1.5 (concentration giving 1.5-fold activation) is below 1000 nM and the Emax is above 200%.
For `Cc1csc(NC(=O)N2CCC(C)(C)c3ccc(-c4cccc(C(F)(F)F)c4)nc32)n1` [Compound 839] the same measures were below 20 µM, below 1000 nM and above 200%.
For `O=C(Nc1cncc(OCC(O)CO)n1)N1CCc2ccc(-c3cccc(C(F)(F)F)c3)nc21` (stereo not drawn) [Compound 868] the same measures were below 20 µM, below 1000 nM and above 200%.
The matching figures for `CC1(C)CCN(C(=O)Nc2cncc(OCC(O)CO)n2)c2nc(-c3cccc(C(F)(F)F)c3)ccc21` (stereo not drawn) [Compound 848]: below 20 µM, below 1000 nM and above 200%.
`O=C(Nc1cccc(OC[C@@H](O)CO)n1)N1CCC(F)(F)c2ccc(-c3cccc(C(F)(F)F)c3)nc21` [Compound 745]: in assay [1], the IC50 is below 20 µM. In assay [2], the EC1.5 (concentration giving 1.5-fold activation) is below 1000 nM and the Emax is above 200%.
For `O=C(Nc1cccnc1)N1CCCc2ccc(-c3cccnc3)nc21` [Compound 886] the same measures were at least 20 µM, 1000 to 25000 nM and above 200%.
Regarding `O=C(Nc1cc(OCC(O)CO)ccn1)N1CCc2ccc(-c3cccc(C(F)(F)F)c3)nc21` (stereo not drawn) [Compound 875], in assay [1], the IC50 was below 20 µM. For the same molecule, in assay [2], the EC1.5 (concentration giving 1.5-fold activation) is below 1000 nM and the Emax is above 200%.
The matching figures for `O=C(Nc1cccc(N2CC3(COC3)C2)n1)N1CCc2ccc(-c3cccc(C(F)(F)F)c3)nc21` [Compound 877]: below 20 µM, below 1000 nM and above 200%.
For `CC1CCN(C(=O)Nc2ccc(F)cn2)c2nc(-c3cccc(C(F)(F)F)c3)ccc21` (stereo not drawn) [Compound 800] the same measures were below 20 µM, below 1000 nM and at most 200%.
In turn, `Cc1csc(NC(=O)N2CCC(C)c3ccc(-c4cccc(C(F)(F)F)c4)nc32)n1` (stereo not drawn) [Compound 787] came in with an IC50 in assay [1] of at least 20 µM. Further, in assay [2], the EC1.5 (concentration giving 1.5-fold activation) is below 1000 nM and the Emax is above 200%.
In the case of `O=C(Nc1ccnc(OC[C@H](O)CO)c1)N1CCCOc2ccc(-c3cccc(Cl)c3)nc21` [Compound 864], the IC50 in assay [1] is below 20 µM. For the same molecule, in assay [2], the EC1.5 (concentration giving 1.5-fold activation) lay in the range of 1000 to 25000 nM and the Emax is above 200%.
For `O=C(Nc1ccncn1)N1CCc2ccc(-c3cccc(C(F)(F)F)c3)nc21` [Compound 850], in assay [1], the IC50 was at least 20 µM. Moreover, in assay [2], the EC1.5 (concentration giving 1.5-fold activation) is below 1000 nM and the Emax was above 200%.
For `O=C(Nc1cccc(OCC(O)CO)n1)N1CCOc2cnc(-c3cccc(C(F)(F)F)c3)nc21` (stereo not drawn) [Compound 717] the same measures were at least 20 µM, below 1000 nM and at most 200%.
Consider `Cc1csc(NC(=O)N2CCc3ccc(-c4cccc(C(F)(F)F)c4)nc32)n1` [Compound 851], for which the IC50 in assay [1] was at least 20 µM. Moreover, in assay [2], the EC1.5 (concentration giving 1.5-fold activation) was below 1000 nM and the Emax is above 200%.
In assay [1], `Cc1cncc(NC(=O)N2CC(C)(C)Oc3ccc(-c4cccc(N5CC[C@@H](F)C5)c4)nc32)c1` [Compound 701, (R)-6-(3-(3-fluoropyrrolidin-1-yl)phenyl)-2,2-dimethyl-N-(5-methylpyridin-3-yl)-2H-pyrido[3,2-b][1,4]oxazine-4(3H)-carboxamide] returned an IC50 below 20 µM. In assay [2], the EC1.5 (concentration giving 1.5-fold activation) is below 1000 nM and the Emax is above 200%.
As to `CCN1CCCN(C(=O)Nc2cc(C)nc(C)c2)c2nc(-c3cccc(Cl)c3)ccc21` [Compound 793], the half-inhibitory concentration (IC50) in assay [1] is below 20 µM. Moreover, in assay [2], the EC1.5 (concentration giving 1.5-fold activation) is below 1000 nM and the Emax is above 200%.
The matching figures for `O=C(Nc1ccncc1)N1CCc2ccc(-c3cccc(C(F)(F)F)c3)nc21` [Compound 849]: below 20 µM, below 1000 nM and above 200%.
In turn, `CC1CCN(C(=O)Nc2ccncc2F)c2nc(-c3cccc(C(F)(F)F)c3)ccc21` (stereo not drawn) [Compound 804] yielded a concentration for half-maximal inhibition (IC50) in assay [1] below 20 µM. Further, in assay [2], the EC1.5 (concentration giving 1.5-fold activation) is below 1000 nM and the Emax is above 200%.
`O=C(Nc1ccnc(OC[C@H](O)CO)n1)N1CCC(F)(F)c2ccc(-c3cccc(C(F)(F)F)c3)nc21` [Compound 825]: the concentration for half-maximal inhibition (IC50) in assay [1] is below 20 µM. Besides, in assay [2], the EC1.5 (concentration giving 1.5-fold activation) is below 1000 nM and the Emax is above 200%.
For `Cn1cc2ccc(NC(=O)N3CCCOc4ccc(-c5cccc(Cl)c5)nc43)cc2n1` [Compound 883] the same measures were below 20 µM, below 1000 nM and above 200%.
Molecule `Cc1cc(NC(=O)N2CCN(C)c3ccc(-c4cccc(C(F)(F)F)c4)nc32)cc(C)n1` [Compound 532] came in with a concentration for half-maximal inhibition (IC50) in assay [3] of at least 20 µM. In addition, in assay [2], the Emax was at most 200% and the EC1.5 result was “B (EC1.5 1-25 μM)”.
In assay [3], `Cc1cc(NC(=O)N2CC(C)(C)Oc3ccc(-c4cccc(N5CCCC5)c4)nc32)cc(C)n1` [Compound 605] yielded a half-maximal inhibitory concentration (IC50) of at least 20 µM. In assay [2], the Emax is above 200% and the EC1.5 entry was “A (EC1.5<1.0 μM)”.
The matching figures for `Cc1cc(-c2cccc(C(F)(F)F)c2)nc2c1OCCN2C(=O)Nc1ccncc1` [Compound 662]: below 20 µM, above 200% and “A (EC1.5<1.0 μM)”.
For `Cc1cncc(NC(=O)N2CCOc3ccc(-c4cccc(N5CCCC5)c4)nc32)c1` [Compound 644] the same measures were below 20 µM, above 200% and “A (EC1.5<1.0 μM)”.
As to `Cc1cc(C)nc(NC(=O)N2CCCc3ccc(-c4cccc(F)c4)nc32)c1` [Compound 664], the 50% inhibitory concentration (IC50) in assay [3] was at least 20 µM. In assay [2], the Emax is above 200% and the EC1.5 result is given as “A (EC1.5<1.0 μM)”.
For `Cc1cncc(NC(=O)N2CCCc3ccc(-c4cccc(Cl)c4)nc32)c1` [Compound 599] the same measures were at least 20 µM, above 200% and “A (EC1.5<1.0 μM)”.
`Cc1cc(NC(=O)N2CCCOc3ccc(-c4cccc(Cl)c4)nc32)ccn1` [Compound 613] registered an IC50 in assay [3] below 20 µM. Further, in assay [2], the Emax was above 200% and the EC1.5 result was “A (EC1.5<1.0 μM)”.
`Cc1cc(C)nc(NC(=O)N2CCOc3c(C)cc(-c4cccc(Cl)c4)nc32)c1` [Compound 690] yielded an IC50 in assay [3] of at least 20 µM. Besides, in assay [2], the Emax was above 200% and the EC1.5 entry is on record as “A (EC1.5<1.0 μM)”.
The matching figures for `O=C(Nc1cncc(OCC(O)CO)n1)N1CCCc2ccc(-c3cccc(C(F)(F)F)c3)nc21` (stereo not drawn) [Compound 638]: below 20 µM, above 200% and “A (EC1.5<1.0 μM)”.
